Results published in paper PMC6342301, “Potent, multi-target serine protease inhibition achieved by a simplified β-sheet motif” (PLoS ONE, 2019).
Read-outs that look alike come from different tables or passages of the source. Blank lines part the entries; values can stand above or below the molecule they belong to. Bridge positions count the residues as written; N and C are the ends. Peptide text beside a SMILES is read from it.

Key:
[1] = biological target: T1, KLK7 (Homo sapiens, UniProt P49862); assay: Competitive inhibition assay against KLK7 (KHLY-pNA substrate); format: biochemical; details: for Ki: KLK7, substrate KHLY-pNA, Morrison equation
T1 construct: made in house; host or cells: Pichia pastoris strain X-33
Description: KLK7 was produced as a zymogen in the yeast Pichia pastoris strain X-33 previously developed and optimised by Dr Maria Brattsand [29]. Expressed proteins were purified using cation exchange chromatography on UnoSphere S (Biorad) and activated by treatment with enterokinase (10 units per milligram purified zymogen; Thermo Fisher Scientific) before a final polishing step to remove enterokinase, again using cation exchange chromatography. The active site concentration of purified KLK7 was determined using the serpin α1- proteinase inhibitor (A1PI) which binds to KLK7 with 1:1 stoichiometry. Briefly, a fixed amount of KLK7 was pre-incubated with a range of inhibitor concentrations at room temperature for 20 min before adding a constant concentration of substrate KHLY-pNA. The residual KLK7 activities were measured as the increase of absorbance at 405 nm for 10 min (ΔOD405/min) and plotted against respective inhibitor concentrations. The active site concentration was determined by linear regression to find the concentration of inhibitor required for complete KLK7 inhibition (ΔOD405/min drops to zero), which is equal to the concentration of KLK7 active site.
Inhibitory property of SFTI inhibitors was assessed by determining the inhibition constant (Ki) in competitive inhibition assays against a range of proteases as described before. Serial dilutions of the inhibitor were pre-incubated with a fix concentration of protease in assay buffer (0.1 M Tris pH 8.0, 0.1 M NaCl and 0.05% Triton X-100) at room temperature for 10 min. Assays were initiated by addition of respective peptide-pNA substrates. Absorbance changes at 405 nm were monitored using a micro plate spectrophotometer (Bio-rad Benchmark Plus) over 5 min. Inhibition constants were calculated in GraphPad Prism 5.01 (La Jolla California, USA) by non-linear regression using the Morrison equation for tight binding inhibitors.

[2] = biological target: T1, KLK7; parameters: method as in PMID 26393374; details: substrate KHLY-pNA; cited from earlier work
[3] = biological target: Trypsin; details: substrate Ac-YASR-pNA; cited from earlier work
[4] = biological target: KLK5; details: substrate Ac-YRSR-pNA; cited from earlier work
[5] = biological target: KLK14; details: substrate Ac-YANR-pNA; cited from earlier work
[6] = biological target: T1, KLK7; details: cited from earlier work

T1 sequence (P49862 30-253): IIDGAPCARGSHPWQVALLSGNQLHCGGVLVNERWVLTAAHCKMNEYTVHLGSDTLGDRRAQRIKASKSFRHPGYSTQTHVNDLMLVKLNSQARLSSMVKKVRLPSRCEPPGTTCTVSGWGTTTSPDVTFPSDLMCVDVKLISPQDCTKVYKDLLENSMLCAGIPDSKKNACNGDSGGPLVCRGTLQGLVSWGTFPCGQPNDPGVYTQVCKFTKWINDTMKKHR

Molecule: CC[C@H](C)[C@@H]1NC(=O)[C@@H]2CCCN2C(=O)[C@@H]2CCCN2C(=O)[C@H]([C@@H](C)CC)NC(=O)[C@H](CO)NC(=O)[C@H](CCCCN)NC(=O)[C@H]([C@@H](C)O)NC(=O)[C@@H]2CSSC[C@H](NC1=O)C(=O)N[C@@H](Cc1ccccc1)C(=O)N1CCC[C@H]1C(=O)N[C@@H](CC(=O)O)C(=O)NCC(=O)N[C@@H](CCCNC(=N)N)C(=O)N2 [SFTI-1, Sunflower trypsin inhibitor-1, reference compound]
Ki [1]: 4800 ± 200 nM

B1: recombinant LEKTI fragment comprising domains 8–11: recombinant LEKTI fragment comprising domains 8–11 (protein)
chain: EAAKEICSEFRDQVRNGTLICTREHNPVRGPDGKMHGNKCAMCASVFKLEEEEKKNDKEEKGKVEAEKVKREAVQELCSEYRHYVRNGRLPCTRENDPIEGLDGKIHGNTCSMCEAFFQQEAKEKERAEPRAKVKREAEKETCDEFRRLLQNGKLFCTRENDPVRGPDGKTHGNKCAMCKAVFQKENEERKRKEEEDQRNAAGHGSSGGGGGNTQDECAEYREQMKNGRLSCTRESDPVRDADGKSYNNQCTMCKAKLEREAERKNEY
modifications: intradomain disulfides; check residue is from a known polymorphic site (R711Q), not from the pape
Ki [6]: 34.8 nM

Second part, led by results:

Ki [1]: 220 ± 6 nM
Molecule: CC[C@H](C)[C@@H]1NC(=O)[C@@H]2CCCN2C(=O)[C@@H]2CCCN2C(=O)[C@H]([C@@H](C)CC)NC(=O)[C@H](CO)NC(=O)[C@H](CCCNC(=N)N)NC(=O)[C@H]([C@@H](C)O)NC(=O)[C@@H]2CSSC[C@H](NC1=O)C(=O)N[C@@H](Cc1ccccc1)C(=O)N1CCC[C@H]1C(=O)N[C@@H](CC(=O)O)C(=O)NCC(=O)N[C@@H](CCCNC(=N)N)C(=O)N2 [SFTI-RCTR] (cyclo(CFPDGRCTRSIPPI); disulfide 1-7)

fold increased inhibitory potency against KLK7 compared to SFTI-1 ([1]; ratio of Ki values, relative to SFTI-1): 286 fold | fold increase in KLK7 inhibitory potency compared to SFTI-RCTR ([1]; ratio of Ki values, relative to SFTI-RCTR): 13 fold
Molecule: SFTI-TCTR: SFTI variant GTCTRSIPPICNPN with four mutations R2T (P4), K5R (P1), F12N, D14N in the cyclic backbone (head-to-tail cyclic backbone)
Ki [2]: 17 ± 0.4 nM | Ki [3]: 0.7 ± 0.07 nM | Ki [4]: 2 ± 0.1 nM | Ki [5]: 0.4 ± 0.02 nM
